Measured values published in PubChem BioAssay AID212 (DTP/NCI, 2004).
Where “and” joins values, the source holds several entries; their conditions need not be identical. Equal entries are not always repeated. Inconclusive results are not listed. Where a SMILES comes first, the peptide text is derived from it. Bridges are numbered along the chain shown (N, C = ends). Roman numbers before positions name the chains, in order. [ ]: non-standard residue; d: D form. The star is where a group is joined. Quinoxaline2carbonyl = O=C(c1cnc2ccccc2n1)*; NMeV = CN[CH](C(=O)O)C(C)C; NMeC = CN[CH](CS)C(=O)O

Tested on: BDF1 mice, colon carcinoma 38 sc, T/C %
Experiment: NCI In Vivo Anticancer Drug Screen. Data for tumor model Colon Carcinoma 38 (subcutaneous) in B6D2F1 (BDF1) mice
Details: endpoint: median tumor weight (est.), higher = larger tumour
Method in brief: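 Transplantable tumor in mice; compound-treated vs vehicle-dosed controls. Measured survival or tumor size; value = T ÷ C.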

[1] = dose: 12.5 mg/kg/injection, schedule: Q07DX002 (ip), vehicle: saline with Tween-80
[2] = dose: 25.0 mg/kg/injection, schedule: Q07DX002 (ip), vehicle: saline with Tween-80
[3] = dose: 200.0 mg/kg/injection, schedule: Q07DX002 (ip), vehicle: saline with Tween-80
[4] = dose: 400.0 mg/kg/injection, schedule: Q07DX002 (ip), vehicle: saline with Tween-80

## COc1ccc(C[C@H](N)C(=O)NC2C(CO)OC(n3cnc4c(N(C)C)ncnc43)C2O)cc1 (some centres not stated)
dose: 12.5 mg/kg/injection, schedule: Q07DX002 (ip), vehicle: saline
  T/C: 81 % of control
dose: 24.0 mg/kg/injection, schedule: Q07DX002 (ip), vehicle: saline
  T/C: 79 % of control and 91 % of control
dose: 25.0 mg/kg/injection, schedule: Q07DX002 (ip), vehicle: saline
  T/C: 86 % of control
dose: 48.0 mg/kg/injection, schedule: Q07DX002 (ip), vehicle: saline
  T/C: 80 % of control and 82 % of control
dose: 50.0 mg/kg/injection, schedule: Q07DX002 (ip), vehicle: saline
  T/C: 92 % of control and 106 % of control
dose: 96.0 mg/kg/injection, schedule: Q07DX002 (ip), vehicle: saline
  T/C: 91 % of control and 108 % of control
dose: 100.0 mg/kg/injection, schedule: Q07DX002 (ip), vehicle: saline
  T/C: 89 % of control and 94 % of control
dose: 192.0 mg/kg/injection, schedule: Q07DX002 (ip), vehicle: saline
  T/C: 72 % of control and 93 % of control
dose: 200.0 mg/kg/injection, schedule: Q07DX002 (ip), vehicle: saline
  T/C: 55 % of control and 64 % of control
dose: 384.0 mg/kg/injection, schedule: Q07DX002 (ip), vehicle: saline
  T/C: 64 % of control and 84 % of control
dose: 400.0 mg/kg/injection, schedule: Q07DX002 (ip), vehicle: saline
  T/C: 21 % of control

## BrC1CC(Br)c2c1c1c(c3c2C(Br)CC3Br)C(Br)CC1Br (configuration not stated)
[1]
  T/C: 157 % of control
[2]
  T/C: 94 % of control and 103 % of control
[3]
  T/C: 80 % of control and 86 % of control
[4]
  T/C: 81 % of control and 105 % of control

## BrC1c2cccc3cccc(c23)C1Br (configuration not stated)
[1]
  T/C: 103 % of control
[2]
  T/C: 117 % of control and 120 % of control
dose: 100.0 mg/kg/injection, schedule: Q07DX002 (ip), vehicle: saline with Tween-80
  T/C: 97 % of control and 107 % of control
[3]
  T/C: 108 % of control and 111 % of control
[4]
  T/C: 85 % of control

## Cc1ncc([N+](=O)[O-])n1CCO
dose: 37.5 mg/kg/injection, schedule: Q01DX005 (ip), vehicle: Klucel (hydroxypropylcellulose) (HPC)
  T/C: 78 % of control
dose: 37.5 mg/kg/injection, schedule: Q04DX003 (ip), vehicle: Klucel (hydroxypropylcellulose) (HPC)
  T/C: 88 % of control
dose: 75.0 mg/kg/injection, schedule: Q01DX005 (ip), vehicle: Klucel (hydroxypropylcellulose) (HPC)
  T/C: 61 % of control
dose: 75.0 mg/kg/injection, schedule: Q04DX003 (ip), vehicle: Klucel (hydroxypropylcellulose) (HPC)
  T/C: 121 % of control
dose: 75.0 mg/kg/injection, schedule: Q07DX002 (ip), vehicle: Klucel (hydroxypropylcellulose) (HPC)
  T/C: 74 % of control
dose: 150.0 mg/kg/injection, schedule: Q01DX005 (ip), vehicle: Klucel (hydroxypropylcellulose) (HPC)
  T/C: 83 % of control
dose: 150.0 mg/kg/injection, schedule: Q04DX003 (ip), vehicle: Klucel (hydroxypropylcellulose) (HPC)
  T/C: 80 % of control
dose: 150.0 mg/kg/injection, schedule: Q07DX002 (ip), vehicle: Klucel (hydroxypropylcellulose) (HPC)
  T/C: 156 % of control
dose: 300.0 mg/kg/injection, schedule: Q01DX005 (ip), vehicle: Klucel (hydroxypropylcellulose) (HPC)
  T/C: 93 % of control
dose: 300.0 mg/kg/injection, schedule: Q04DX003 (ip), vehicle: Klucel (hydroxypropylcellulose) (HPC)
  T/C: 75 % of control
dose: 300.0 mg/kg/injection, schedule: Q07DX002 (ip), vehicle: Klucel (hydroxypropylcellulose) (HPC)
  T/C: 103 % of control
dose: 600.0 mg/kg/injection, schedule: Q01DX005 (ip), vehicle: Klucel (hydroxypropylcellulose) (HPC)
  T/C: 105 % of control
dose: 600.0 mg/kg/injection, schedule: Q07DX002 (ip), vehicle: Klucel (hydroxypropylcellulose) (HPC)
  T/C: 99 % of control

## CC1NC(=O)C(NC(=O)c2cnc3ccccc3n2)COC(=O)C(C(C)C)N(C)C(=O)C2CSSCC(C(=O)N(C)C(C(C)C)C(=O)OCC(NC(=O)c3cnc4ccccc4n3)C(=O)NC(C)C(=O)N2C)N(C)C1=O (configuration not stated) (I: Quinoxaline2carbonyl-SA[NMeC][NMeV] / II: Quinoxaline2carbonyl-SA[NMeC][NMeV]; ester I:1-II:C, I:C-II:1; disulfide I:3-II:3; configuration not given here)
dose: 25.0 micrograms/kg/injection, schedule: Q07DX002 (ip), vehicle: Klucel (hydroxypropylcellulose) (HPC)
  T/C: 102 % of control
dose: 50.0 micrograms/kg/injection, schedule: Q07DX002 (ip), vehicle: Klucel (hydroxypropylcellulose) (HPC)
  T/C: 74 % of control
dose: 100.0 micrograms/kg/injection, schedule: Q07DX002 (ip), vehicle: Klucel (hydroxypropylcellulose) (HPC)
  T/C: 84 % of control
dose: 200.0 micrograms/kg/injection, schedule: Q07DX002 (ip), vehicle: Klucel (hydroxypropylcellulose) (HPC)
  T/C: 95 % of control

## CC[C@@]1(O)C(=O)OCc2c1cc1n(c2=O)Cc2cc3cc(O)ccc3nc2-1
dose: 0.75 mg/kg/injection, schedule: Q07DX002 (ip), vehicle: saline
  T/C: 92 % of control
dose: 1.5 mg/kg/injection, schedule: Q07DX002 (ip), vehicle: saline
  T/C: 92 % of control
dose: 3.0 mg/kg/injection, schedule: Q07DX002 (ip), vehicle: saline
  T/C: 91 % of control
dose: 6.0 mg/kg/injection, schedule: Q07DX002 (ip), vehicle: saline
  T/C: 67 % of control
dose: 12.0 mg/kg/injection, schedule: Q07DX002 (ip), vehicle: saline
  T/C: 81 % of control
